Data from EP4778924A1 (Huons Co., Ltd., priority 2023, dated 2025).
Structures can show the parent of a compound that is named as a salt.

Target: T1, Proton Pump (H^+,K^+-ATPase) (Sus scrofa, UniProt P19156)
T1 construct: gastric vesicles were isolated from porcine stomachs; from tissue; host or cells: porcine stomach (gastric vesicles)
Test: Inhibitory activity on proton pump (H+,K+-ATPase) activity, porcine gastric vesicles, malachite green readout
Type: biochemical
Conditions: porcine gastric vesicles, pH 6.5, 8 mM KCl, 0.2 mM ATP
Procedure: Specifically, gastric vesicles were isolated from porcine stomachs, and the protein content of the vesicles was quantified using a BSA kit (Bio-Rad, 5000205). All reactions were performed in 96-well plates with a reaction volume of […] containing 100 ng of vesicles. 10 mM valinomycin and the test compound were added to reaction buffer (50 mM Tris-HEPES, 5 mM MgCl2, 8 mM KCl, pH 6.5) containing porcine gastric vesicles at various concentrations, and the mixture was incubated at 37°C for 30 minutes. DMSO or test compounds at different concentrations were added after diluting them to a final DMSO concentration of 0.1%. 0.2 mM adenosine triphosphate (ATP) was then added to the reaction buffer and incubated at 37°C for 20 minutes. The reaction was stopped with 0.2% Tween 20, followed by the addition of malachite green (Sigma Aldrich, MAK307) and incubation at room temperature for 30 minutes. The optical density (OD) value was measured at 620 nm using a microplate reader (Spectramax M5e, Molecular devices). The percent (%) inhibition was derived from the OD values of the control group and various concentrations of the test compounds. The IC50 of the test compounds was analyzed using nonlinear regression using the GraphPad Prism8 program using the % inhibition value at each concentration.

T1 sequence (P19156 2-1034 limits assumed): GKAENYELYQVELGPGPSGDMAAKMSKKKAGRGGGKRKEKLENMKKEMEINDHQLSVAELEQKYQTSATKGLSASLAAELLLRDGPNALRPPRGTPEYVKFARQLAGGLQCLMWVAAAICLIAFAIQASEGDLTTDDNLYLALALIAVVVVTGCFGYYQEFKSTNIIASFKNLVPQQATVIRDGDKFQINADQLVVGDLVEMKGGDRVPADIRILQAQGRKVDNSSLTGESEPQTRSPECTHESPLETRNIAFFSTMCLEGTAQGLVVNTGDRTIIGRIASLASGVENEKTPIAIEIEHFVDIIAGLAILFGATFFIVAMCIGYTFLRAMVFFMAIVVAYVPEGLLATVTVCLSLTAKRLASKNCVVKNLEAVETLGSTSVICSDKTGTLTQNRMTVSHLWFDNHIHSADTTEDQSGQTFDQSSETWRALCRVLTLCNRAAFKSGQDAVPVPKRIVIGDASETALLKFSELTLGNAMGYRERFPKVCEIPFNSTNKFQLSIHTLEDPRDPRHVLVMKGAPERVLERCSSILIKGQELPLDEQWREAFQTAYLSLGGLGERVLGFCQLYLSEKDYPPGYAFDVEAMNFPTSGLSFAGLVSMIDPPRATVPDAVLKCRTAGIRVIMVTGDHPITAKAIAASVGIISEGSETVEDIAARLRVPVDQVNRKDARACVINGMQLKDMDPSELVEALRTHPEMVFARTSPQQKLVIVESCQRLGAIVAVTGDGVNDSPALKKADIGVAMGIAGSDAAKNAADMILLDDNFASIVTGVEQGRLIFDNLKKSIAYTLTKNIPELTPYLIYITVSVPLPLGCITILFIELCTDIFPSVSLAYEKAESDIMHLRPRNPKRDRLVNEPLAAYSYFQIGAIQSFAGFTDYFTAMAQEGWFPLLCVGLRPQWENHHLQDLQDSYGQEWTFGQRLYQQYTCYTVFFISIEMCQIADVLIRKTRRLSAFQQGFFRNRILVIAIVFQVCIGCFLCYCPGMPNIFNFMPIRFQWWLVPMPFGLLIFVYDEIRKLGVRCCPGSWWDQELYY
T1 sequence (P18434 whole entry partner): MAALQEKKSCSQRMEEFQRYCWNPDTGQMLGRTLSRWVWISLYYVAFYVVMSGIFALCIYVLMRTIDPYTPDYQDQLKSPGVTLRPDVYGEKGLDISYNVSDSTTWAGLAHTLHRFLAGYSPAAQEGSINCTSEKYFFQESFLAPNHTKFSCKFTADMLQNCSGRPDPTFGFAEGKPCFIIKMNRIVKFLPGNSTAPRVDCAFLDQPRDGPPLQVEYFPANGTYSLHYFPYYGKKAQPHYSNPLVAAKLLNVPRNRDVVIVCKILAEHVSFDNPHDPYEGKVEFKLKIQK

Row | Structure (SMILES) | IC50 [nM]
1 | CNC(=O)Nc1cc(NCc2c(C)cccc2C)c2nc(C)c(C)n2c1 [Example 33, hydrochloride] | < 50
2 | Cc1cccc(C)c1CNc1cc(NC(=O)NCC(=O)O)cn2c(C)c(C)nc12 [Example 70, ((8-((2,6-dimethylbenzyl)amino)-2,3-dimethylimidazo[1,2-a]pyridin-6-yl)carbamoyl)glycine hydrochloride] | 100 to 500
3 | CC(=O)OCC(=O)Nc1cc(NCc2c(C)cccc2C)c2nc(C)c(C)n2c1 [Example 25, 2-((8-((2,6-dimethylbenzyl)amino)-2,3-dimethylimidazo[1,2-a]pyridin-6-yl)amino)-2-oxoethyl acetate] | 100 to 500
4 | Cc1cccc(C)c1CNc1cc(NC(=O)c2ccccc2)cn2c(C)c(C)nc12 [Example 104, N-(8-((2,6-dimethylbenzyl)amino)-2,3-dimethylimidazo[1,2-a]pyridin-6-yl)benzamide citrate] | 100 to 500
5 | Cc1cc(F)cc(C)c1CNc1cc(NC(=O)N2CCC2)cn2c(C)c(C)nc12 [Example 51, N-(8-((4-fluoro-2,6-dimethylbenzyl)amino)-2,3-dimethylimidazo[1,2-a]pyridin-6-yl)azetidine-1-carboxamide citrate] | < 50
6 | Cc1cccc(C)c1CNc1cc(NC(=O)[C@@H]2CN2)cn2c(C)c(C)nc12 [Example 109, (S)-N-(8-((2,6-dimethylbenzyl)amino)-2,3-dimethylimidazo[1,2-a]pyridin-6-yl)aziridine-2-carboxamide hydrochloride] | 100 to 500
7 | Cc1nc2c(O[C@H]3CCOc4cc(F)cc(F)c43)cc(C(=O)N(C)C)cc2[nH]1 [Tegoprazan, reference compound] | > 500
8 | Cc1cccc(C)c1CNc1cc(NC(=O)CCOCCC(=O)O)cn2c(C)c(C)nc12 [Example 39] | > 500
9 | COc1cc(/C=C/C(=O)Nc2cc(NCc3c(C)cccc3C)c3nc(C)c(C)n3c2)ccc1OC(C)=O [Example 108, (E)-4-(3-((8-((2,6-dimethylbenzyl)amino)-2,3-dimethylimidazo[1,2-a]pyridin-6-yl)amino)-3-oxoprop-1-en-1-yl)-2-methoxyphenyl acetate] | > 500
10 | Cc1cccc(C)c1CNc1cc(NC(=O)CNC(=O)C(F)F)cn2c(C)c(C)nc12 [Example 56, N-(2-((8-((2,6-dimethylbenzyl)amino)-2,3-dimethylimidazo[1,2-a]pyridin-6-yl)amino)-2-oxoethyl)-2,2-difluoroacetamide] | > 500
11 | CC(=O)OC1(C(=O)Nc2cc(NCc3c(C)cc(F)cc3C)c3nc(C)c(C)n3c2)CC1 [Example 113, 1-((8-((4-fluoro-2,6-dimethylbenzyl)amino)-2,3-dimethylimidazo[1,2-a]pyridin-6-yl)carbamoyl)cyclopropyl acetate] | 100 to 500
12 | Cc1cccc(C)c1CNc1cc(NC(=O)CNC(=O)C(C)(C)C)cn2c(C)c(C)nc12 [Example 55, N-(2-((8-((2,6-dimethylbenzyl)amino)-2,3-dimethylimidazo[1,2-a]pyridin-6-yl)amino)-2-oxoethyl)pivalamide] | > 500
13 | Cc1cc(F)cc(C)c1CNc1cc(NC(=O)CN)cn2c(C)c(C)nc12.Cl [Example 64, 2-amino-N-(8-((4-fluoro-2,6-dimethylbenzyl)amino)-2,3-dimethylimidazo[1,2-a]pyridin-6-yl)acetamide hydrochloride] | < 50
14 | Cc1cccc(C)c1CNc1cc(NC(=O)CCNC(=O)CO)cn2c(C)c(C)nc12 [Example 119, N-(8-((2,6-dimethylbenzyl)amino)-2,3-dimethylimidazo[1,2-a]pyridin-6-yl)-3-(2-hydroxyacetamido)propanamide] | 50 to 100
15 | Cc1cccc(C)c1CNc1cc(NC(=O)N[C@@H]2CCc3ccccc32)cn2c(C)c(C)nc12 [Example 80, (R)-1-(2,3-dihydro-1H-inden-1-yl)-3-(8-((2,6-dimethylbenzyl)amino)-2,3-dimethylimidazo[1,2-a]pyridin-6-yl)urea hydrochloride] | > 500
16 | Cc1cccc(C)c1CNc1cc(NC(=O)CNC(=O)C(C)(F)F)cn2c(C)c(C)nc12 [Example 57, N-(2-((8-((2,6-dimethylbenzyl)amino)-2,3-dimethylimidazo[1,2-a]pyridin-6-yl)amino)-2-oxoethyl)-2,2-difluoropropanamide] | 100 to 500

Results, then the compound that gave them:

Row | IC50 [nM] | Structure (SMILES)
17 | 100 to 500 | Cc1cccc(C)c1CNc1cc(NC(=O)C(C)(F)F)cn2c(C)c(C)nc12 [Example 16, N-(8-((2,6-dimethylbenzyl)amino)-2,3-dimethylimidazo[1,2-a]pyridin-6-yl)-2,2-difluoropropanamide]
18 | 50 to 100 | CCC(=O)Nc1cc(NCc2c(C)cccc2C)c2nc(C)c(C)n2c1 [Example 13, N-(8-((2,6-dimethylbenzyl)amino)-2,3-dimethylimidazo[1,2-a]pyridin-6-yl)propionamide]
19 | > 500 | Cc1cccc(C)c1CNc1cc(NC(=O)C2CCCCC2)cn2c(C)c(C)nc12 [Example 3, N-(8-((2,6-dimethylbenzyl)amino)-2,3-dimethylimidazo[1,2-a]pyridin-6-yl)cyclohexanecarboxamide]
20 | 100 to 500 | Cc1cccc(C)c1CNc1cc(NC(=O)C2CC(F)C2)cn2c(C)c(C)nc12 (stereo not drawn) [Example 17, N-(8-((2,6-dimethylbenzyl)amino)-2,3-dimethylimidazo[1,2-a]pyridin-6-yl)-3-fluorocyclobutane-1-carboxamide]
21 | > 500 | Cc1cccc(C)c1CNc1cc(NS(=O)(=O)C2CCC2)cn2c(C)c(C)nc12 [Example 18, N-(8-((2,6-dimethylbenzyl)amino)-2,3-dimethylimidazo[1,2-a]pyridin-6-yl)cyclobutanesulfonamide]
22 | 100 to 500 | CNC(=O)N1CC[C@H]1C(=O)Nc1cc(NCc2c(C)cccc2C)c2nc(C)c(C)n2c1 [Example 79, (S)-N2-(8-((2,6-dimethylbenzyl)amino)-2,3-dimethylimidazo[1,2-a]pyridin-6-yl)-N1-methylazetidine-1,2-dicarboxamide]
23 | > 500 | Cc1cccc(C)c1CNc1cc(NC(=O)CCC(=O)O)cn2c(C)c(C)nc12 [Example 38, 4-((8-((2,6-dimethylbenzyl)amino)-2,3-dimethylimidazo[1,2-a]pyridin-6-yl)amino)-4-oxobutanoic acid]
24 | 50 to 100 | CCNC(=O)Nc1cc(NCc2c(C)cccc2C)c2nc(C)c(C)n2c1 [Example 22, 1-(8-((2,6-dimethylbenzyl)amino)-2,3-dimethylimidazo[1,2-a]pyridin-6-yl)-3-ethylurea]
25 | < 50 | Cc1cccc(C)c1CNc1cc(NC(=O)N(C)CCN)cn2c(C)c(C)nc12 [Example 87, 1-(2-aminoethyl)-3-(8-((2,6-dimethylbenzyl)amino)-2,3-dimethylimidazo[1,2-a]pyridin-6-yl)-1-methylurea hydrochloride]
26 | 100 to 500 | Cc1cccc(C)c1CNc1cc(NC(=O)C2CCCC2)cn2c(C)c(C)nc12 [Example 1, N-(8-((2,6-dimethylbenzyl)amino)-2,3-dimethylimidazo[1,2-a]pyridin-6-yl)cyclopentanecarboxamide]
27 | 100 to 500 | Cc1cccc(C)c1CNc1cc(NC(=O)CNC(=O)C2CC(O)C2)cn2c(C)c(C)nc12 (stereo not drawn) [Example 58, N-(2-((8-((2,6-dimethylbenzyl)amino)-2,3-dimethylimidazo[1,2-a]pyridin-6-yl)amino)-2-oxoethyl)-3-hydroxycyclobutane-1-carboxamide]
28 | 100 to 500 | Cc1cccc(C)c1CNc1cc(NC(=O)CNC(=O)C2CC(F)C2)cn2c(C)c(C)nc12 (stereo not drawn) [Example 59, N-(2-((8-((2,6-dimethylbenzyl)amino)-2,3-dimethylimidazo[1,2-a]pyridin-6-yl)amino)-2-oxoethyl)-3-fluorocyclobutane-1-carboxamide]
29 | < 50 | Cc1cccc(C)c1CNc1cc(NC(=O)CN)cn2c(C)c(C)nc12.Cl [Example 10, 2-amino-N-(8-((2,6-dimethylbenzyl)amino)-2,3-dimethylimidazo[1,2-a]pyridin-6-yl)acetamide hydrochloride]
30 | < 50 | Cc1cccc(C)c1CNc1cc(NC(=O)N(C)C)cn2c(C)c(C)nc12 [Example 43, 3-(8-((2,6-dimethylbenzyl)amino)-2,3-dimethylimidazo[1,2-a]pyridin-6-yl)-1,1-dimethylurea hydrochloride]
31 | > 500 | Cc1cccc(C)c1CNc1cc(NC(C)C)cn2c(C)c(C)nc12 [Example 92, N^8-(2,6-dimethylbenzyl)-N^6-isopropyl-2,3-dimethylimidazo [1,2-a] pyridine-6,8-diamine]
32 | 50 to 100 | Cc1cccc(C)c1CNc1cc(NC(=O)CCN)cn2c(C)c(C)nc12 [Example 99, 3-amino-N-(8-((2,6-dimethylbenzyl)amino)-2,3-dimethylimidazo[1,2-a]pyridin-6-yl)propanamide hydrochloride]
33 | < 50 | Cc1cccc(C)c1CNc1cc(NC(=O)C[C@@H]2CCCN2)cn2c(C)c(C)nc12 [Example 93, (S)-N-(8-((2,6-dimethylbenzyl)amino)-2,3-dimethylimidazo[1,2-a]pyridin-6-yl)-2-(pyrrolidin-2-yl)acetamide hydrochloride]

Same assay, conditions: result in words

Row | inhibitory activity against proton pump activity | Structure (SMILES)
34 | excellent inhibitory properties | Cc1cccc(C)c1CNc1cc(NC(=O)CN)cn2c(C)c(C)nc12.Cl [Example 10, 2-amino-N-(8-((2,6-dimethylbenzyl)amino)-2,3-dimethylimidazo[1,2-a]pyridin-6-yl)acetamide hydrochloride]
35 | excellent inhibitory properties | Cc1cc(F)cc(C)c1CNc1cc(NC(=O)CN)cn2c(C)c(C)nc12.Cl [Example 64, 2-amino-N-(8-((4-fluoro-2,6-dimethylbenzyl)amino)-2,3-dimethylimidazo[1,2-a]pyridin-6-yl)acetamide hydrochloride]

Row | Structure (SMILES) | inhibitory activity against proton pump activity
36 | CNC(=O)Nc1cc(NCc2c(C)cccc2C)c2nc(C)c(C)n2c1 [Example 33, hydrochloride] | excellent inhibitory properties
